Data on twelve compounds can be found in patent US20260022142A1, “MACROCYCLIC IMMUNOMODULATORS” (Bristol-Myers Squibb Company, priority 2022, published 2026).

Bridge positions count the residues as written; N and C are the ends. Square brackets hold non-standard residues; d marks the D form. Peptide text beside a SMILES is read from it. * marks the point of attachment. ξ: configuration not given here. Phe(4-CONH2) = NC(=O)c1ccc(C[C@H](N)C(=O)O)cc1; Bip = N[C@@H](Cc1ccc(-c2ccccc2)cc1)C(=O)O; Phe(3-Me) = Cc1cccc(C[C@H](N)C(=O)O)c1; Cyclopropanecarbonyl = O=C(C1CC1)*; Val(3-OH) = CC(C)(O)[C@H](N)C(=O)O; Cha = N[C@@H](CC1CCCCC1)C(=O)O; Thr(3ξ) = CC(O)[C@H](N)C(=O)O; 12Ado = NCCCCCCCCCCCC(=O)O; Carboxymethyl = O=C(O)C*; Orn = NCCC[C@H](N)C(=O)O; Aun = NCCCCCCCCCCC(=O)O; Dab = NCC[C@H](N)C(=O)O; Dap = NC[C@H](N)C(=O)O; AEEA = NCCOCCOCC(=O)O; Piv = CC(C)(C)C(=O)*

In the test the target is T1, PD-1/PD-L1 interaction (PE-labeled human PD-L1-Ig binding to Jurkat cell line over-expressing human PD-1) (Homo sapiens, UniProt Q15116).
T1 construct: expressed in transfected cells; host or cells: Jurkat
T1 sequence (Q15116 25-288): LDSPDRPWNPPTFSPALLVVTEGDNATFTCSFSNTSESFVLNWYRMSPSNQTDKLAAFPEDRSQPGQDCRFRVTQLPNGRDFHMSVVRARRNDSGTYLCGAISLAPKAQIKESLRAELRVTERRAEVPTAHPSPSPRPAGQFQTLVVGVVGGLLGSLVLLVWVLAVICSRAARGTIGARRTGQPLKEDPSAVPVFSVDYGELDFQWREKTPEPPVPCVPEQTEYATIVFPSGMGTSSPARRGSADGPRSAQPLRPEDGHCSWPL
Put plainly: Jurkat-PD-1 Cell Binding High-Content Screening Assay (CBA). It counts as cell-based. As to conditions: Jurkat cell line over-expressing human PD-1; PE-labeled PD-L1-Ig 20 nM final; read-out: Jurkat hPD1-PDL1 IC50. An outline of the steps:
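Read-out is high-content imaging of cell-bound phycoerythrin-tagged PD-L1-Ig on fixed, Hoechst-counterstained Jurkat cells that over-express human PD-1. Compound exposure lasts 2 h at 37° C before the labeled ligand (20 nM final) is added for a further hour.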
With `Cc1cccc(C[C@@H]2NC(=O)[C@H](CC(=O)O)NC(=O)[C@H](Cc3ccc(OCC(=O)O)cc3)NC(=O)[C@H](C(C)O)NC(=O)CSC[C@@H](C(=O)N[C@@H](CCN)C(=O)NCCOCCOCC(=O)NCCCCCCCCCCC(=O)O)NC(=O)[C@H](CCCCN)NC(=O)[C@H](C(C)C)NC(=O)[C@H](CC3CCCCC3)NC(=O)[C@H](CCN)NC(=O)[C@@H](CC(C)C)NC(=O)[C@H](CCCN)NC(=O)[C@H](Cc3ccc(O)cc3)NC(=O)[C@H](Cc3ccc(-c4ccccc4)cc3)NC(=O)[C@H](Cc3ccc(O)cc3)NC2=O)c1` (stereo partly drawn) [Compound 3607] ({CH2CO}-[Thr(3ξ)]Y(Carboxymethyl)D[Phe(3-Me)]Y[Bip]Y[Orn][dL][Dab][Cha]VKC[Dab][AEEA][Aun]-OH; thioether N-14), the IC50 was found to be 0.0118 µM.

For `Cc1cccc(C[C@@H]2NC(=O)[C@H](CC(=O)O)NC(=O)[C@H](Cc3ccc(OCC(=O)O)cc3)NC(=O)[C@H](CN)NC(=O)CSC[C@@H](C(=O)N[C@@H](CCCCN)C(=O)N[C@@H](CO)C(=O)NCCCCCCCCCCC(=O)O)NC(=O)[C@H](CCCN)NC(=O)[C@H](C(C)C)NC(=O)[C@H](CC3CCCCC3)NC(=O)[C@H](CCN)NC(=O)[C@@H](CC(C)C)NC(=O)[C@H](CCCN)NC(=O)[C@H](Cc3ccc(O)cc3)NC(=O)[C@H](Cc3ccc(-c4ccccc4)cc3)NC(=O)[C@H](C(C)C)NC2=O)c1` [Compound 3608] ({CH2CO}-[Dap]Y(Carboxymethyl)D[Phe(3-Me)]V[Bip]Y[Orn][dL][Dab][Cha]V[Orn]CKS[Aun]-OH; thioether N-14), the IC50 was determined as 0.0527 µM.

Take `Cc1cccc(C[C@@H]2NC(=O)[C@H](CC(=O)O)NC(=O)[C@H](Cc3ccc(OCC(=O)O)cc3)NC(=O)[C@H](CCN)NC(=O)CSC[C@@H](C(=O)N[C@@H](CCN)C(=O)NCCOCCOCC(=O)NCCCCCCCCCCC(=O)O)NC(=O)[C@H](CCCN)NC(=O)[C@H](C(C)C)NC(=O)[C@H](CC3CCCCC3)NC(=O)[C@H](CCN)NC(=O)[C@@H](CC(C)C)NC(=O)[C@H](CCCN)NC(=O)[C@H](CCCCNC(=O)C(C)(C)C)NC(=O)[C@H](Cc3ccc(-c4ccccc4)cc3)NC(=O)[C@H](CCCCNC(=O)C(C)(C)C)NC2=O)c1` [Compound 3609] ({CH2CO}-[Dab]Y(Carboxymethyl)D[Phe(3-Me)]K(Piv)[Bip]K(Piv)[Orn][dL][Dab][Cha]V[Orn]C[Dab][AEEA][Aun]-OH; thioether N-14): the IC50 stood at 0.0188 µM.

As to `Cc1cccc(C[C@@H]2NC(=O)[C@H](CC(=O)O)NC(=O)[C@H](Cc3ccc(OCC(=O)O)cc3)NC(=O)[C@H](CCN)NC(=O)CSC[C@@H](C(=O)N[C@@H](CCN)C(=O)NCCOCCOCC(=O)NCCCCCCCCCCC(=O)O)NC(=O)[C@H](CCCN)NC(=O)[C@H](C(C)C)NC(=O)[C@H](CC3CCCCC3)NC(=O)[C@H](CCN)NC(=O)[C@@H](CC(C)C)NC(=O)[C@H](CCCN)NC(=O)[C@H](Cc3ccc(O)cc3)NC(=O)[C@H](Cc3ccc(-c4ccccc4)cc3)NC(=O)[C@H](CCCCNC(=O)C(C)(C)C)NC2=O)c1` [Compound 3610] ({CH2CO}-[Dab]Y(Carboxymethyl)D[Phe(3-Me)]K(Piv)[Bip]Y[Orn][dL][Dab][Cha]V[Orn]C[Dab][AEEA][Aun]-OH; thioether N-14), the IC50 amounted to 0.0101 µM.

Take `Cc1cccc(C[C@@H]2NC(=O)[C@H](CC(=O)O)NC(=O)[C@H](Cc3ccc(OCC(=O)O)cc3)NC(=O)[C@H](CCN)NC(=O)CSC[C@@H](C(=O)N[C@@H](CCCN)C(=O)N[C@@H](CN)C(=O)NCCCCCCCCCCC(=O)O)NC(=O)[C@H](CCCN)NC(=O)[C@H](C(C)C)NC(=O)[C@H](CC3CCCCC3)NC(=O)[C@H](CCN)NC(=O)[C@@H](CC(C)C)NC(=O)[C@H](CCCN)NC(=O)[C@H](Cc3ccc(O)cc3)NC(=O)[C@H](Cc3ccc(-c4ccccc4)cc3)NC(=O)[C@H](CCCCNC(=O)C(C)(C)C)NC2=O)c1` [Compound 3612] ({CH2CO}-[Dab]Y(Carboxymethyl)D[Phe(3-Me)]K(Piv)[Bip]Y[Orn][dL][Dab][Cha]V[Orn]C[Orn][Dap][Aun]-OH; thioether N-14): the IC50 was found to be 0.0136 µM.

Take `Cc1cccc(C[C@@H]2NC(=O)[C@H](CC(=O)O)NC(=O)[C@H](Cc3ccc(OCC(=O)O)cc3)NC(=O)[C@H](CCN)NC(=O)CSC[C@@H](C(=O)N[C@@H](CCCCN)C(=O)N[C@@H](CN)C(=O)NCCCCCCCCCCC(=O)O)NC(=O)[C@H](CCCCN)NC(=O)[C@H](C(C)C)NC(=O)[C@H](CC3CCCCC3)NC(=O)[C@H](CCN)NC(=O)[C@@H](CC(C)C)NC(=O)[C@H](CCCN)NC(=O)[C@H](Cc3ccc(O)cc3)NC(=O)[C@H](Cc3ccc(-c4ccccc4)cc3)NC(=O)[C@H](CCCCNC(=O)C(C)(C)C)NC2=O)c1` [Compound 3613] ({CH2CO}-[Dab]Y(Carboxymethyl)D[Phe(3-Me)]K(Piv)[Bip]Y[Orn][dL][Dab][Cha]VKCK[Dap][Aun]-OH; thioether N-14): the IC50 turned out to be 0.0241 µM.

As for `Cc1cccc(C[C@@H]2NC(=O)[C@H](CC(=O)O)NC(=O)[C@H](Cc3ccc(OCC(=O)O)cc3)NC(=O)[C@H](CCCNC(=O)C3CC3)NC(=O)CSC[C@@H](C(=O)N[C@@H](CCCN)C(=O)N[C@@H](CO)C(=O)NCCCCCCCCCCCC(=O)O)NC(=O)[C@H](CO)NC(=O)[C@H](CCCCN)NC(=O)[C@H](CC3CCCCC3)NC(=O)[C@H](CCN)NC(=O)[C@@H](CC(C)C)NC(=O)[C@H](CCCN)NC(=O)[C@H](Cc3ccc(OCC(=O)O)cc3)NC(=O)[C@H](Cc3ccc(-c4ccccc4)cc3)NC(=O)[C@H](Cc3ccc(OCC(=O)O)cc3)NC2=O)c1` [Compound 3614] ({CH2CO}-[Orn](Cyclopropanecarbonyl)Y(Carboxymethyl)D[Phe(3-Me)]Y(Carboxymethyl)[Bip]Y(Carboxymethyl)[Orn][dL][Dab][Cha]KSC[Orn]S[12Ado]-OH; thioether N-14), the IC50 was found to be 0.0097 µM.

For the compound `Cc1cccc(C[C@@H]2NC(=O)[C@H](CC(=O)O)NC(=O)[C@H](Cc3ccc(OCC(=O)O)cc3)NC(=O)[C@H](CCN)NC(=O)CSC[C@@H](C(=O)N[C@H](CC(N)=O)C(=O)NCCOCCOCC(=O)NCCCCCCCCCCC(=O)O)NC(=O)[C@H](CCCN)NC(=O)[C@H](C(C)C)NC(=O)[C@H](CC3CCCCC3)NC(=O)[C@H](CCN)NC(=O)[C@@H](CC(C)C)NC(=O)[C@H](CCCN)NC(=O)[C@H](Cc3ccc(O)cc3)NC(=O)[C@H](Cc3ccc(-c4ccccc4)cc3)NC(=O)[C@H](C(C)C)NC2=O)c1` [Compound 3616] ({CH2CO}-[Dab]Y(Carboxymethyl)D[Phe(3-Me)]V[Bip]Y[Orn][dL][Dab][Cha]V[Orn]C[dN][AEEA][Aun]-OH; thioether N-14), the IC50 turned out to be 0.0183 µM.

On to `Cc1cccc(C[C@@H]2NC(=O)[C@H](CC(=O)O)NC(=O)[C@H](Cc3ccc(OCC(=O)O)cc3)NC(=O)[C@H](CCN)NC(=O)CSC[C@@H](C(=O)N[C@@H](CCCN)C(=O)N[C@@H](CO)C(=O)NCCCCCCCCCCCC(=O)O)NC(=O)[C@H](CO)NC(=O)[C@H](C(C)(C)O)NC(=O)[C@H](CC3CCCCC3)NC(=O)[C@H](CCN)NC(=O)[C@@H](CC(C)C)NC(=O)[C@H](CCCN)NC(=O)[C@H](Cc3ccc(OCC(=O)O)cc3)NC(=O)[C@H](Cc3ccc(-c4ccccc4)cc3)NC(=O)[C@H](Cc3ccc(OCC(=O)O)cc3)NC2=O)c1` [Compound 3617] ({CH2CO}-[Dab]Y(Carboxymethyl)D[Phe(3-Me)]Y(Carboxymethyl)[Bip]Y(Carboxymethyl)[Orn][dL][Dab][Cha][Val(3-OH)]SC[Orn]S[12Ado]-OH; thioether N-14), for which the IC50 was found to be 0.0788 µM.

For `Cc1cccc(C[C@@H]2NC(=O)[C@H](CC(=O)O)NC(=O)[C@H](Cc3ccc(OCC(=O)O)cc3)NC(=O)[C@H](Cc3ccc(C(N)=O)cc3)NC(=O)CSC[C@@H](C(=O)N[C@@H](CCCN)C(=O)N[C@@H](CO)C(=O)NCCCCCCCCCCCC(=O)O)NC(=O)[C@H](CO)NC(=O)[C@H](C(C)(C)O)NC(=O)[C@H](CC3CCCCC3)NC(=O)[C@H](CCN)NC(=O)[C@@H](CC(C)C)NC(=O)[C@H](CCCN)NC(=O)[C@H](Cc3ccc(OCC(=O)O)cc3)NC(=O)[C@H](Cc3ccc(-c4ccccc4)cc3)NC(=O)[C@H](Cc3ccc(OCC(=O)O)cc3)NC2=O)c1` [Compound 3618] ({CH2CO}-[Phe(4-CONH2)]Y(Carboxymethyl)D[Phe(3-Me)]Y(Carboxymethyl)[Bip]Y(Carboxymethyl)[Orn][dL][Dab][Cha][Val(3-OH)]SC[Orn]S[12Ado]-OH; thioether N-14), the IC50 turned out to be 0.0218 µM.

`CC(=O)NCCCC[C@@H]1NC(=O)[C@H](Cc2ccc(-c3ccccc3)cc2)NC(=O)[C@H](Cc2ccc(O)cc2)NC(=O)[C@H](Cc2cccc(C)c2)NC(=O)[C@H](CC(=O)O)NC(=O)[C@H](Cc2ccc(OCC(=O)O)cc2)NC(=O)[C@H](CN)NC(=O)CSC[C@@H](C(=O)N[C@@H](CCN)C(=O)N[C@@H](CO)C(=O)NCCCCCCCCCCCC(=O)O)NC(=O)[C@H](CCCN)NC(=O)[C@H](C(C)C)NC(=O)[C@H](CC2CCCCC2)NC(=O)[C@H](CCN)NC(=O)[C@@H](CC(C)C)NC(=O)[C@H](CCCN)NC1=O` [Compound 3619] ({CH2CO}-[Dap]Y(Carboxymethyl)D[Phe(3-Me)]Y[Bip]K(Ac)[Orn][dL][Dab][Cha]V[Orn]C[Dab]S[12Ado]-OH; thioether N-14): the IC50 was 0.0134 µM.

`CC(=O)NCCCC[C@@H]1NC(=O)[C@H](Cc2ccc(-c3ccccc3)cc2)NC(=O)[C@H](Cc2ccc(O)cc2)NC(=O)[C@H](Cc2cccc(C)c2)NC(=O)[C@H](CC(=O)O)NC(=O)[C@H](Cc2ccc(OCC(=O)O)cc2)NC(=O)[C@H](CCN)NC(=O)CSC[C@@H](C(=O)N[C@@H](CCN)C(=O)N[C@@H](CO)C(=O)NCCCCCCCCCCCC(=O)O)NC(=O)[C@H](CCCN)NC(=O)[C@H](C(C)(C)O)NC(=O)[C@H](CC2CCCCC2)NC(=O)[C@H](CCN)NC(=O)[C@@H](CC(C)C)NC(=O)[C@H](CCCN)NC1=O` [Compound 3620] ({CH2CO}-[Dab]Y(Carboxymethyl)D[Phe(3-Me)]Y[Bip]K(Ac)[Orn][dL][Dab][Cha][Val(3-OH)][Orn]C[Dab]S[12Ado]-OH; thioether N-14): the IC50 turned out to be 0.0372 µM.

As a reminder, the IC50 is the concentration needed to halve the response being measured.
